In ChEMBL document CHEMBL3885881, “DrugMatrix”:

Species on record: Rattus norvegicus
Type: toxicity, organism-based, Sprague-Dawley
Conditions: in vivo, po, route oral GAVAGE, vehicle 100 % SALINE; for ABSOLUTE EOSINOPHIL / ABSOLUTE LYMPHOCYTE / ABSOLUTE MONOCYTE / ABSOLUTE SEGMENTED NEUTROPHIL / BASOPHIL / EOSINOPHIL / ERYTHROCYTE COUNT / HEMATOCRIT / HEMOGLOBIN / LEUKOCYTE COUNT / LYMPHOCYTE / MEAN CORPUSCULAR HEMOGLOBIN / MEAN CORPUSCULAR HEMOGLOBIN CONCENTRATION / MONOCYTE / NEUTROPHIL / NUCLEATED RED BLOOD CELLS / PLATELET COUNT: tissue Blood; for ALANINE AMINOTRANSFERASE / ALBUMIN / ALKALINE PHOSPHATASE / ASPARTATE AMINOTRANSFERASE / BLOOD UREA NITROGEN / CARBON DIOXIDE / CHLORIDE / CHOLESTEROL / CREATINE PHOSPHOKINASE / CREATININE / GLUCOSE / LACTATE DEHYDROGENASE / LIPASE / PHOSPHORUS / POTASSIUM / SODIUM / TOTAL BILIRUBIN / TOTAL PROTEIN / URIC ACID: tissue Plasma
[1] = 0 mg/kg, 6 h, vehicle control, dose level Control, time 0.25 day
[2] = 0 mg/kg, 24 h, vehicle control, dose level Control, time 1 day
[3] = 700 mg/kg, 6 h, dose level Low, time 0.25 day

Description: DrugMatrix - Regimen: Single

CN(C)C=O [DIMETHYLFORMAMIDE]
ABSOLUTE EOSINOPHIL [1]: 24 CELLS/uL | ABSOLUTE LYMPHOCYTE [1]: 11958.17 CELLS/uL | ABSOLUTE MONOCYTE [1]: 398.83 CELLS/uL | ABSOLUTE SEGMENTED NEUTROPHIL [1]: 1252.33 CELLS/uL | BASOPHIL [1]: 0% | EOSINOPHIL [1]: 0.17% | ERYTHROCYTE COUNT [1]: 5.37 x10E6/uL | HEMATOCRIT [1]: 35.6% | HEMOGLOBIN [1]: 13.05 G/DL | LEUKOCYTE COUNT [1]: 13.63 x10E3/uL | LYMPHOCYTE [1]: 87.67% | MEAN CORPUSCULAR HEMOGLOBIN [1]: 24.28 pg | MEAN CORPUSCULAR HEMOGLOBIN CONCENTRATION [1]: 36.67 G/DL | MONOCYTE [1]: 2.83% | NEUTROPHIL [1]: 9.33% | NUCLEATED RED BLOOD CELLS [1]: 0 /100WBC | PLATELET COUNT [1]: 947.83 x10E3/uL | ALANINE AMINOTRANSFERASE [1]: 51 u/L | ALBUMIN [1]: 4.02 G/DL | ALKALINE PHOSPHATASE [1]: 312.33 u/L | ASPARTATE AMINOTRANSFERASE [1]: 98.17 u/L | BLOOD UREA NITROGEN [1]: 9.5 mg/dL | CARBON DIOXIDE [1]: 18.83 mmol/L | CHLORIDE [1]: 103.5 MEQ/L | CHOLESTEROL [1]: 69.5 mg/dL | CREATINE PHOSPHOKINASE [1]: 580.17 u/L | CREATININE [1]: 0.53 mg/dL | GLUCOSE [1]: 175.67 mg/dL | LACTATE DEHYDROGENASE [1]: 295.5 u/L | LIPASE [1]: 8.17 u/L | PHOSPHORUS [1]: 14.12 mg/dL | POTASSIUM [1]: 5.77 MEQ/L | SODIUM [1]: 144.13 MEQ/L | TOTAL BILIRUBIN [1]: 0.12 mg/dL | TOTAL PROTEIN [1]: 4.87 G/DL | URIC ACID [1]: 2.25 mg/dL | ABSOLUTE EOSINOPHIL [2]: 0 CELLS/uL | ABSOLUTE LYMPHOCYTE [2]: 12232.83 CELLS/uL | ABSOLUTE SEGMENTED NEUTROPHIL [2]: 780.17 CELLS/uL | BASOPHIL [2]: 0% | EOSINOPHIL [2]: 0% | ERYTHROCYTE COUNT [2]: 5.18 x10E6/uL | HEMATOCRIT [2]: 33.48% | HEMOGLOBIN [2]: 13.22 G/DL | LEUKOCYTE COUNT [2]: 13.03 x10E3/uL | LYMPHOCYTE [2]: 93.33% | MEAN CORPUSCULAR HEMOGLOBIN [2]: 25.57 pg | MEAN CORPUSCULAR HEMOGLOBIN CONCENTRATION [2]: 39.52 G/DL | MONOCYTE [2]: 0.17% | NEUTROPHIL [2]: 6.5% | NUCLEATED RED BLOOD CELLS [2]: 0 /100WBC | PLATELET COUNT [2]: 931.5 x10E3/uL | ALANINE AMINOTRANSFERASE [2]: 60.83 u/L | ALBUMIN [2]: 4.18 G/DL | ALKALINE PHOSPHATASE [2]: 283.33 u/L | ASPARTATE AMINOTRANSFERASE [2]: 80.5 u/L | BLOOD UREA NITROGEN [2]: 11.83 mg/dL | CARBON DIOXIDE [2]: 35.33 mmol/L | CHLORIDE [2]: 98.5 MEQ/L | CHOLESTEROL [2]: 80 mg/dL | CREATINE PHOSPHOKINASE [2]: 181.83 u/L | CREATININE [2]: 0.2 mg/dL | GLUCOSE [2]: 142.67 mg/dL | LACTATE DEHYDROGENASE [2]: 65.5 u/L | LIPASE [2]: 9.83 u/L | PHOSPHORUS [2]: 9.82 mg/dL | POTASSIUM [2]: 5.69 MEQ/L | SODIUM [2]: 143.35 MEQ/L | TOTAL BILIRUBIN [2]: 0.15 mg/dL | TOTAL PROTEIN [2]: 6.2 G/DL | URIC ACID [2]: 0.42 mg/dL | ABSOLUTE EOSINOPHIL [3]: 9.5 CELLS/uL | ABSOLUTE LYMPHOCYTE [3]: 11164.33 CELLS/uL | ABSOLUTE MONOCYTE [3]: 139.17 CELLS/uL | ABSOLUTE SEGMENTED NEUTROPHIL [3]: 1270.33 CELLS/uL | BASOPHIL [3]: 0% | EOSINOPHIL [3]: 0.17% | ERYTHROCYTE COUNT [3]: 5.55 x10E6/uL | HEMATOCRIT [3]: 36.67% | HEMOGLOBIN [3]: 12.92 G/DL | LEUKOCYTE COUNT [3]: 12.58 x10E3/uL | LYMPHOCYTE [3]: 88.83% | MEAN CORPUSCULAR HEMOGLOBIN [3]: 23.45 pg | MEAN CORPUSCULAR HEMOGLOBIN CONCENTRATION [3]: 35.43 G/DL | MONOCYTE [3]: 1% | NEUTROPHIL [3]: 10% | NUCLEATED RED BLOOD CELLS [3]: 0 /100WBC | PLATELET COUNT [3]: 1098.83 x10E3/uL | ALANINE AMINOTRANSFERASE [3]: 66.17 u/L | ALBUMIN [3]: 4.17 G/DL | ALKALINE PHOSPHATASE [3]: 259.5 u/L | ASPARTATE AMINOTRANSFERASE [3]: 125.5 u/L | BLOOD UREA NITROGEN [3]: 9.33 mg/dL | CARBON DIOXIDE [3]: 17.83 mmol/L | CHLORIDE [3]: 103 MEQ/L | CHOLESTEROL [3]: 67.67 mg/dL | CREATINE PHOSPHOKINASE [3]: 882.33 u/L | CREATININE [3]: 0.3 mg/dL | GLUCOSE [3]: 174.5 mg/dL | LACTATE DEHYDROGENASE [3]: 297.17 u/L | LIPASE [3]: 9.83 u/L | PHOSPHORUS [3]: 15.98 mg/dL | POTASSIUM [3]: 6.92 MEQ/L | SODIUM [3]: 144.05 MEQ/L | TOTAL BILIRUBIN [3]: 0.13 mg/dL | TOTAL PROTEIN [3]: 5.7 G/DL | URIC ACID [3]: 3.3 mg/dL
